Experiments:
H-PGDS [1] = target: T1, H-PGDS (Homo sapiens (Human), UniProt O60760); test: H-PGDS Fluorescence Polarization Binding Assay (FPBA); details: H-PGDS-MBP fusion enzyme, fluorescent probe, reduced glutathione 5 mM, 60-90 minutes at room temperature, 96-well format
Procedure: H-PGDS Fluorescence Polarization Binding Assay This assay essentially is available from Cayman Chemical Company as Catalog item #600007. The test data reported for the aforementioned Examples (H-PGDS FPBA IC50) were generated using a 96-well, instead of the 384-well, format. […] Assays were performed in 96-well microtiter plates in 100 μL of total sample volume. Excitation and emission wavelengths appropriate for the employed detection analyte were used. […] Twelve clean microfuge tubes were labeled A1 through A12. […] Dimethyl sulfoxide (50 μL) was added to each of tubes A1 through A11. The HQL-79 control solution was serially diluted by removing 50 μL from tube A12 and placing it in tube A11 with subsequent thorough mixing of the contents of tube A11. Next, 50 μL was removed from tube A11 and was placed into tube A10 with subsequent thorough mixing of the contents of tube A10. This process was repeated for tubes A9 through A2. […] A test compound may be dissolved in DMSO, ethanol, or methanol at several concentrations when the titration endpoint is unknown. […] Assay cocktail (95 μL) was added to each plate well. DMSO (5 μL) from microfuge tube A1 was added to each plate well A1 and B1. Positive control solution (5 μL) from microfuge tube A2 was added to each plate well A2 and B2. Positive control solution (5 μL) from microfuge tube A3 was added to each plate well A3 and B3. This procedure was continued until all the positive control standard dilutions were aliquoted. Test compound solutions (5 μL) were added to the wells. […] The IC50 for a particular test compound was obtained by performing a full concentration titration versus a full concentration titration of positive control. Comparison of a single concentration of a test compound to the maximum binding well provided an assessment of the relative affinity of the test compound for H-PGDS-MBP. The plate was covered and incubated for 60-90 minutes at room temperature. The FP signal is stable for at least two hours. […] The measurements were taken in the fluorescent polarization mode with the z-height set to the middle of the well and the G-factor set to 1.13 on a Tecan Safire 2 reader.

H-PGDS [2] = target: T1, H-PGDS; test: H-PGDS Inhibitor Enzyme Immunoassay (EIA); format: biochemical; details: 25 ng H-PGDS, 40 μM PGH2, 1 mM GSH; PGD2 quantified by EIA
Procedure: H-PGDS Inhibitor Enzyme Immunoassay
The assay detects and measures PGD2 generated by H-PGDS. The prostanoid product is quantified via enzyme immunoassay (EIA) using a specific PGD2 antibody.
The assay is carried out by the following steps: • 1. Inhibitor screening is performed in 100 mM Tris-HCl, pH 8.0 containing 1 mM GSH, 1 mM MgCl2, 4% inhibitor/DMSO, 40 μM PGH2 and 25 ng of PGDS in a total volume of 125 μL. • 2. A reaction mixture containing 100 mM Tris-HCl, pH 8.0, 1 mM GSH, 1 mM MgCl2, 25 ng H-PGDS and 4% inhibitor or DMSO (uninhibited reaction) is preincubated at 25° C. for 10 minutes. • 3. Reactions are initiated using 5 μL of PGH2 and quenched every 15 seconds for one minute. Reactions are quenched by taking 10 μL of reaction mixture and adding to 490 μL of 100 mM phosphate buffer containing 0.1% BSA, 400 mM NaCl, 1 mM EDTA, 20 mM FeCl2, 10% 1N HCl, and 0.01% azide to prevent the non-enzymatic formation of PGD2 from PGH2. The FeCl2 serves the purpose of reducing PGH2 to 12-HHT. (Quench buffer is kept on ice at all times). • 4. Quenched samples (5 μL) are further diluted 100 fold in 495 μL of 100 mM phosphate buffer containing 0.1% BSA, 400 mM NaCl, 1 mM EDTA, and 0.01% azide for the PGD2 EIA assay. (Dilution buffers are kept on ice at all times).
The final 5000 fold diluted samples are analyzed following the protocol outlined in Cayman Chemical's commercially available PGD2 EIA kit (Cat. #512021). 50 μL of diluted sample is analyzed at least in duplicate in the EIA assay and the amount of PGD2 formed is quantified using a standard curve.

[3] = background statement with literature references; cited from earlier work

T1 sequence (O60760 whole entry, the tested form may be a part): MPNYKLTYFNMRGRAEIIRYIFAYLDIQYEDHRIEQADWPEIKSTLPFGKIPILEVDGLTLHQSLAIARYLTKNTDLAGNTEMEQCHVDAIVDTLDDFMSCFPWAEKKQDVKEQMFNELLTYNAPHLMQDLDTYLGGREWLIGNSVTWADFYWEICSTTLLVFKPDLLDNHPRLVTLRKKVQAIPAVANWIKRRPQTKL

Row | SMILES | IC50 (H-PGDS [1]) [µM] | IC50 (H-PGDS [2]) [µM] | melting point [°C] | antiallergic and antiasthmatic activity in vivo [3]
1 | c1ccc(-c2ncc(-c3cnc(-c4ccccc4)[nH]3)cn2)cc1 [Example 1, 2-phenyl-5-(2-phenyl-1H-imidazol-5-yl)pyrimidine] | 0.25 | 0.012 | 253 | 
2 | c1ccc(-c2ccc(-c3cnc(-c4ccccc4)[nH]3)cn2)cc1 [Example 2, 2-phenyl-5-(2-phenyl-1H-imidazol-5-yl)pyridine] | 0.48 | 0.097 | 206 | 
3 | Cn1c(-c2cnc(-c3ccccc3)nc2)cnc1-c1ccccc1 [Example 3, 5-(1-methyl-2-phenyl-1H-imidazol-5-yl)-2-phenylpyrimidine] | 0.625 | 0.25 | 211 | 
4 | Cc1nc(-c2ccccc2)[nH]c1-c1cnc(-c2ccccc2)nc1 [Example 4, 5-(4-methyl-2-phenyl-1H-imidazol-5-yl)-2-phenylpyrimidine] | 0.45 | 0.082 | 138 | 
5 | Fc1cccc(-c2ncc(-c3cnc(-c4ccccc4)[nH]3)cn2)c1 [Example 6, 2-(3-fluorophenyl)-5-(2-phenyl-1H-imidazol-5-yl)pyrimidine] | 0.28 | 0.047 | 240 | 
6 | c1ccc(Cc2ncc(-c3cnc(-c4ccccc4)nc3)[nH]2)cc1 [Example 14, 5-(2-benzyl-1H-imidazol-5-yl)-2-phenylpyrimidine] | 0.625 | 0.059 | 235 | 
7 | c1ccc(Oc2ncc(-c3cnc(-c4cccnc4)[nH]3)cn2)cc1 [Example 40, 2-phenoxy-5-(2-(pyridin-3-yl)-1H-imidazol-4-yl)pyrimidine] | 0.625 | 0.37 | 236 | 
8 | c1ccc(-c2ncc(-c3nnc(-c4ccccc4)[nH]3)cn2)cc1 [Example 49, 2-phenyl-5-(5-phenyl-4H-1,2,4-triazol-3-yl)pyrimidine] | 1 | 0.084 | 280 to 282 | 
9 | CCOC(=O)c1cc(-c2cnc(Oc3ccccc3)nc2)[nH]n1 [Example 54, ethyl 5-(2-phenoxypyrimidin-5-yl)-1H-pyrazole-3-carboxylate] | 1.3 | 0.13 |  | 
10 | CN1CCN(C(=O)c2cc(-c3cnc(Oc4ccccc4)nc3)[nH]n2)CC1 [Example 57, (4-methylpiperazin-1-yl)(5-(2-phenoxypyrimidin-5-yl)-1H-pyrazol-3-yl)methanone] | 0.65 | 0.42 |  | 
11 | c1ccc(-c2ncc(-c3csc(-c4cccnc4)n3)cn2)cc1 [Example 59, 4-(2-phenylpyrimidin-5-yl)-2-(pyridin-3-yl)thiazole] | 1 | 0.15 | 319 | 
12 | c1ccc(C(OC2CCN(CCCc3nnn[nH]3)CC2)c2ccccc2)cc1 [HQL-79] |  |  |  | antiallergic and antiasthmatic activity in vivo

Now from value to compound, other results behind:

Row | IC50 (H-PGDS [1]) [µM] | IC50 (H-PGDS [2]) [µM] | melting point [°C] | SMILES | antiallergic and antiasthmatic activity in vivo [3]
13 | 0.188 | 0.004 | 221 | Fc1cccc(-c2ncc(-c3cnc(-c4ccccc4)nc3)[nH]2)c1 [Example 8, 5-(2-(3-fluorophenyl)-1H-imidazol-5-yl)-2-phenylpyrimidine] | 
14 | 0.125 | 0.053 | 262 | c1ccc(-c2ncc(-c3cnc(-c4ccccn4)[nH]3)cn2)cc1 [Example 9, 2-phenyl-5-(2-(pyridin-2-yl)-1H-imidazol-5-yl)pyrimidine] | 
15 | 0.079 | 0.021 | 308 | c1ccc(-c2ncc(-c3cnc(-c4cccnc4)[nH]3)cn2)cc1 [Example 10, 2-phenyl-5-(2-(pyridin-3-yl)-1H-imidazol-5-yl)pyrimidine] | 
16 | 0.156 | 0.041 | 309 | Fc1cccc(-c2ncc(-c3cnc(-c4cccnc4)[nH]3)cn2)c1 [Example 11, 2-(3-fluorophenyl)-5-(2-(pyridin-3-yl)-1H-imidazol-5yl)pyrimidine] | 
17 | 0.125 | 0.075 | 300 | c1ccc(-c2ncc(-c3cnc(-c4ccncc4)[nH]3)cn2)cc1 [Example 13, 2-phenyl-5-(2-(pyridin-4-yl)-1H-imidazol-5-yl)pyrimidine] | 
18 | 0.15 | 0.023 | 258 | C(=C\c1ncc(-c2cnc(-c3ccccc3)nc2)[nH]1)/c1cccnc1 [Example 15, (E)-2-phenyl-5-(2-(2-(pyridin-3-yl)vinyl)-1H-imidazol-5-yl)pyrimidine] | 
19 | 0.08 | 0.006 | 223 | c1ccc(CN2CCC(c3ncc(-c4cnc(-c5ccccc5)nc4)[nH]3)CC2)cc1 [Example 19, 5-(2-(1-benzylpiperidin-4-yl)-1H-imidazol-5-yl)-2-phenylpyrimidine] | 

From patent US9126973B2, “Multiheteroaryl compounds as inhibitors of H-PGDS and their use for treating prostaglandin D2 mediated diseases” (Cayman Chemical Company, Incorporated, priority 2008, dated 2015)
